Reference: ChEMBL document CHEMBL1133485, “3alpha-(4-Substituted phenyl)nortropane-2beta-carboxylic acid methyl esters show selective binding at the norepinephrine transporter” (Bioorg Med Chem Lett, 2000)

Tests used:
[1] = target: T1, Norepinephrine transporter (Rattus norvegicus, UniProt Q9WTR4); experiment: Inhibition of 0.5 nM [3H]nisoxetine binding to Norepinephrine transporter
[2] = target: T1, Norepinephrine transporter; experiment: Inhibition of 0.5 nM [3H]nisoxetine binding toNorepinephrine transporter
[3] = target: Sodium-dependent dopamine transporter (Rattus norvegicus, UniProt P23977); experiment: Displacement of 0.5 nM [3H]WIN-35248 from Dopamine transporter
Sodium-dependent dopamine transporter, sequence (P23977 whole entry): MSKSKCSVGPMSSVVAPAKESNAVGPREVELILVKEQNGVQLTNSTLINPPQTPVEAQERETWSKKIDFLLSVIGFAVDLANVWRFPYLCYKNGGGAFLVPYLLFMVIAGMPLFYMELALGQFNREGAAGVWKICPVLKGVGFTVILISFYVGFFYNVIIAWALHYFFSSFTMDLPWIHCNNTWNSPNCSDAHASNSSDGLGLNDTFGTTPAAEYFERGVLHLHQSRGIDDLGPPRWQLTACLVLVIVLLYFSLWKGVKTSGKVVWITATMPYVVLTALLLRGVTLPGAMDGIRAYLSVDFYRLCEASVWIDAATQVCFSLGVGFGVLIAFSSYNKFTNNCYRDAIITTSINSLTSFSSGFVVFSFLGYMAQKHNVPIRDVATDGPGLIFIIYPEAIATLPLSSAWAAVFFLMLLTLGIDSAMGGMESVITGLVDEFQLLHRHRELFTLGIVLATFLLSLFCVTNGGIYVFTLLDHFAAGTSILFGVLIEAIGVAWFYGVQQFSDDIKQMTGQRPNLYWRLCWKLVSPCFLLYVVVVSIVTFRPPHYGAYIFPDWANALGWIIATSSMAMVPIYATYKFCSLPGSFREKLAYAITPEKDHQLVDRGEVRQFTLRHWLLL

[4] = target: T2, Sodium-dependent serotonin transporter (Rattus norvegicus, UniProt P31652); experiment: Inhibition of 0.2 nM [3H]paroxetine binding to Serotonin transporter
T2 sequence (P31652 whole entry): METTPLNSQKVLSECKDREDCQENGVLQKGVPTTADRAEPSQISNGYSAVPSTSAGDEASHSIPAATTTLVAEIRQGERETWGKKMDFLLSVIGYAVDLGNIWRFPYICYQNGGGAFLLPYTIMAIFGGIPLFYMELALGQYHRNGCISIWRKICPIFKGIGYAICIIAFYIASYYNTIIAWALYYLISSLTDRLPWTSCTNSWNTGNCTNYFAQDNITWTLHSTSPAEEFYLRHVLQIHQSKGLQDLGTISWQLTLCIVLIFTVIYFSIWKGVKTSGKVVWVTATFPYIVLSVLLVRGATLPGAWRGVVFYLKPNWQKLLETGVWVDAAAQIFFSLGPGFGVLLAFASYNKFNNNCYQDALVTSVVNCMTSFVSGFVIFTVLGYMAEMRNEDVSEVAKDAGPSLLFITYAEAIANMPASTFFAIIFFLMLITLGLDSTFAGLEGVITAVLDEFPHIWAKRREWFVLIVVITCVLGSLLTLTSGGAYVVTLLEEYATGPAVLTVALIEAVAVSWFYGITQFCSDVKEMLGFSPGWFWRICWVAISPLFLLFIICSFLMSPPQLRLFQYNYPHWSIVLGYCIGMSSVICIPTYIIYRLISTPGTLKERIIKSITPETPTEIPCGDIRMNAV

[5] = target: T2, Sodium-dependent serotonin transporter

T1 sequence (Q9WTR4 whole entry): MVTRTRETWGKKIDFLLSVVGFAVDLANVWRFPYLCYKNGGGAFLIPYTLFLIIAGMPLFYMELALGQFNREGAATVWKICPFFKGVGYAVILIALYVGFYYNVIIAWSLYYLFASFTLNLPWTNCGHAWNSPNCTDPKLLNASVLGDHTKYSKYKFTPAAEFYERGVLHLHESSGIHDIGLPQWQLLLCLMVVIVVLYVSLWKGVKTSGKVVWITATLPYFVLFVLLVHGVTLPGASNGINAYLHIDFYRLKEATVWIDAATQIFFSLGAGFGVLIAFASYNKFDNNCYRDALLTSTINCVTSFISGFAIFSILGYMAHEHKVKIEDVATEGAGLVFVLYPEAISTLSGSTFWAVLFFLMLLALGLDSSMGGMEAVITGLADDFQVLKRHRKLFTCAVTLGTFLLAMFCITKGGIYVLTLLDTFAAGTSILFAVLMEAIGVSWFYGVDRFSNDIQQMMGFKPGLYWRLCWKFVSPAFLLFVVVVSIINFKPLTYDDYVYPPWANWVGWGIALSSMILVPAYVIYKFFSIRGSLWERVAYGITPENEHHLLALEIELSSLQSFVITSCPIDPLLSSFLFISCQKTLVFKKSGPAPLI

SMILES: COC(=O)C1C(c2ccc(C)cc2)CC2CCC1N2C (stereo in doubt; 5c)
- Ki [1]: 160 nM
- IC50 [2]: 270 nM

SMILES: COC(=O)C1C2CCC(CC1c1ccc(C)cc1)N2 (stereo in doubt; 7c)
- IC50 [3]: 0.84 nM
- Ki [1]: 4.4 nM
- IC50 [2]: 7.2 nM
- IC50 [4]: 135 nM
- Ki [5]: 12 nM

SMILES: COC(=O)C1C2CCC(CC1c1ccc(Cl)cc1)N2 (stereo in doubt; 4b)
- IC50 [3]: 3.1 nM
- Ki [1]: 3.1 nM
- IC50 [2]: 5.14 nM
- IC50 [4]: 53 nM
- Ki [5]: 4.8 nM

SMILES: COC(=O)C1C(c2ccc(Cl)cc2)CC2CCC1N2C (stereo in doubt; 6b)
- Ki [5]: 4 nM

SMILES: COC(=O)C1C(c2ccc(Cl)cc2)CC2CCC1N2C (stereo in doubt; 5b)
- Ki [5]: 91 nM

SMILES: COC(=O)C1C2CCC(CC1c1ccc(F)cc1)N2 (stereo in doubt; 7a)
- IC50 [3]: 4.4 nM
- Ki [1]: 11.3 nM
- IC50 [2]: 18.8 nM
- Ki [5]: 6.24 nM

SMILES: COC(=O)[C@H]1[C@@H](c2ccc(F)cc2)C[C@H]2CC[C@H]1N2C (stereo in doubt; 6a)
- Ki [1]: 503 nM
- Ki [5]: 69 nM

SMILES: COC(=O)C1C(c2ccc(C)cc2)CC2CCC1N2C (stereo in doubt; 6c)
- Ki [1]: 36 nM

SMILES: COC(=O)C1C2CCC(CC1c1ccc(F)cc1)N2 (stereo in doubt; 4a)
- IC50 [3]: 32.6 nM
- Ki [1]: 5.9 nM
- IC50 [2]: 9.8 nM
- IC50 [4]: 92.4 nM
- Ki [5]: 8.4 nM

SMILES: COC(=O)C1C2CCC(CC1c1ccc(Cl)cc1)N2 (stereo in doubt; 7b)
- Ki [1]: 3.28 nM
- IC50 [2]: 5.45 nM
- Ki [5]: 0.38 nM

SMILES: COC(=O)C1C2CCC(CC1c1ccc(C)cc1)N2 (stereo in doubt; 4c)
- IC50 [3]: 33.6 nM
- Ki [1]: 5.2 nM
- IC50 [2]: 9 nM
- IC50 [4]: 500 nM
- Ki [5]: 46 nM

SMILES: COC(=O)[C@H]1[C@@H](c2ccc(F)cc2)C[C@H]2CC[C@H]1N2C (stereo in doubt; 5a)
- Ki [1]: 741 nM
- Ki [5]: 460 nM
